Results: patent US20210205223A1, “PROPELLANT-FREE FORMULATION FOR INHALATION” (priority 2020, published 2021)
Structures can show the parent of a compound that is named as a salt.

Conditions: solution of sample 1 from soft mist inhaler; ACI 28.3 L/minute, ambient temperature, RH 90%
Procedure: The aerodynamic particle size distribution was determined using an Andersen Scale Impactor (ACI). The soft mist inhaler was held close to the ACI inlet until no aerosol was visible. The flow rate of the ACI was set to 28.3 L/minute and was operated under ambient temperature and a relative humidity (RH) of 90%.
Fractions of the dose were deposited at different stages of the ACI, in accordance with the particle size of the fraction. Each fraction was washed from the stage and analyzed using HPLC.
The particle size distribution was expressed in terms of mass median aerodynamic diameter (MMAD) and Geometric Standard Deviation (GSD).

Compound	MMAD (mass median aerodynamic diameter)
COc1ccc(CC(C)NCC(O)c2ccc(O)c(NC=O)c2)cc1 (centres unmarked) [Formoterol fumarate, N-[2-hydroxy-5-(1-hydroxy-2-((2-(4-methoxyphenyl)-1-methylethy-1)amino)-ethyl)phenyl] formamide]	4.49 μm
C[N+]1(C)CCC(OC(=O)C(O)(c2ccccc2)C2CCCC2)C1.[Br-] (centres unmarked) [Glycopyrronium bromide]	4.91 μm
